The values below come from patent publication US8921370B2, “Bicyclo[3.2.1]octyl amide derivatives and uses of same” (H. Lundbeck A/S, priority 2010, dated 2014).

The structures appear in SMILES notation. pIC50, pKi: −log10 of the molar value.

Test [1] concerns the target T1, hmGluR5 (Homo sapiens (Human), UniProt P41594). Kind of test: Calcium mobilization assay (FLIPR), negative allosteric activity, EC80 glutamate. It is filed as cell-based. The note with it: HEK 293 cells expressing hmGluR5; for Emax: HEK293, FLIPR maximum inhibition of EC80 glutamate response, read-out: hmGlu5 FLIPR % inhibition; for pIC50: inhibition of EC80 glutamate response. The procedure: The cDNA for rat metabotropic glutamate receptor 5 (rmGluR5) and the cDNA for human metabotropic glutamate receptor 5 […] gifts from S. Nakanishi (Kyoto University, Kyoto, Japan). […] Twenty-four hours prior to assay, cells were seeded into 384-well black wall microtiter plates coated with poly-D-lysine. […] After excess dye was discarded, cells were washed in assay buffer and layered with a final volume equal to 30 μL/well. […] Laser excitation energy was adjusted so that basal fluorescence readings were approximately 10,000 relative fluorescent units. […] Basal readings derived from negative controls were subtracted from all samples. Maximum change in fluorescence was calculated for each well. Concentration-response curves derived from the maximum change in fluorescence were analyzed by nonlinear regression (Hill equation). A negative modulator can be identified from these concentration-response curves if a compound produces a concentration dependent inhibition of the EC80 glutamate response.
(In general: Calcium assays in cells follow changes in intracellular calcium, usually with a dye or a luminescent sensor.)

The target in test [2] is T1, hmGluR5. Kind of test: Radioligand binding assay (MPEP binding site). The note with it: radioligand binding to the MPEP site, 5 nM radioligand; Ki by Cheng-Prusoff. On the procedure: Binding assays were performed as described in [J. A. O'Brien et al. Mol. Pharmacol., 2003, 64, 731-740] with slight modifications, including that a radioligand that binds to the […] (MPEP) binding site was used in place of [^3H]-MPEP. Briefly, after thawing, the membrane homogenates were resuspended in 50 mM Tris-HCl and 0.9% NaCl binding buffer at pH 7.4 to a final assay concentration of 20 μg is protein/well for radioligand filtration binding. Incubations included 5 nM radioligand, membranes and either buffer or varying concentrations of compound. Samples were incubated for 60 min at room temperature with shaking. Non-specific binding was defined with 10 μM cold MPEP when using the radioligand. After incubation, samples were filtered over a GF/C filter (presoaked in 0.25% polyethyleneimine (PEI)) and then washed 4 times using a Tomtec® Harvester 96® Mach III cell harvester (Tomtec, Hamden, Conn.) with 0.5 mL ice-cold 50 mM Tris-HCl (pH 7.4). IC50 values were derived from the inhibition curve and Ki values were calculated according to the Cheng and Prusoff equation of Ki=IC50/(1+[L]/Kd) described in [Y. Cheng and W. H. Prusoff Biochem. Pharmacol. 1973, 22, 3099-3108] where [L] is the concentration of radioligand and Kd is its dissociation constant at the receptor, derived from the saturation isotherm. The Ki values of compounds of the invention were <10 μM.

T1 sequence (P41594 21-1212): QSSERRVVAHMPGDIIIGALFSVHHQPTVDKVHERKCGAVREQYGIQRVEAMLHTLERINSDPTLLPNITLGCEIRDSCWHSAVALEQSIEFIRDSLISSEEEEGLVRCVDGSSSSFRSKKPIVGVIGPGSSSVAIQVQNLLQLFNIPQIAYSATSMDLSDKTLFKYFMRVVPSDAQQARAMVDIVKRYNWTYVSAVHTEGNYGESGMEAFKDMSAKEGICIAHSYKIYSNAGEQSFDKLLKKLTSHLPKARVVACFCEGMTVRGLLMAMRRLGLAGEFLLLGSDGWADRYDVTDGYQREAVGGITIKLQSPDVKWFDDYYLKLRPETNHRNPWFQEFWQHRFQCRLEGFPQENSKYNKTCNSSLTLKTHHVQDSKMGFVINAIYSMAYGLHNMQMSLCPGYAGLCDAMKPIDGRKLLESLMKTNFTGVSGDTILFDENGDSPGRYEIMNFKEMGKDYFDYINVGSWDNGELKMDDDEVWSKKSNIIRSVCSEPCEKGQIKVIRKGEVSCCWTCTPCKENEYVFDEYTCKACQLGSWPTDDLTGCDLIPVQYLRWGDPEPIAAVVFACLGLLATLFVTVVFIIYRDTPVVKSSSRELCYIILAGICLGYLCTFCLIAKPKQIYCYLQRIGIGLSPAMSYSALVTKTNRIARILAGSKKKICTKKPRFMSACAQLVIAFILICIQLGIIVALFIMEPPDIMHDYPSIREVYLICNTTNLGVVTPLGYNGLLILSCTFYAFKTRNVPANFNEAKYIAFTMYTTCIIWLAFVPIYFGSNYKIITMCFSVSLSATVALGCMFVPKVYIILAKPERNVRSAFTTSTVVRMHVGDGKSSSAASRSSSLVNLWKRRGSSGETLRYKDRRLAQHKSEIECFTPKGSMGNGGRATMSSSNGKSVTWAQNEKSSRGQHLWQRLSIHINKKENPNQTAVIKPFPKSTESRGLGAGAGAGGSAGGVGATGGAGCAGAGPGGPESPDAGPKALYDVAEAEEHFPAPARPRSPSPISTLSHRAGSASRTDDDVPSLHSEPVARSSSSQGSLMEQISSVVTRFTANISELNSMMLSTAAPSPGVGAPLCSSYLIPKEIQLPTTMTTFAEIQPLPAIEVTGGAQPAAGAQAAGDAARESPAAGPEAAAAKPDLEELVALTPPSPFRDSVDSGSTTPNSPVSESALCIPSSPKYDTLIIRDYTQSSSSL

In general, pIC50 refers to the IC50 on a negative log10 scale, so that one unit is a factor of ten. The term pKi denotes −log10 of the Ki, conventionally taken in molar units. A lower pKi goes with a high Ki. `Cc1cccc(C(=O)NC23CCCC(NC(=O)c4cccc(Cl)c4)(CC2)C3)n1` (stereo not drawn) [Example 2, N-(5-(3-chlorobenzamido)bicyclo[3.2.1]octan-1-yl)-6-methylpicolinamide]: on hmGluR5 [1], the Emax was determined as 89% and the pIC50 was 8.43. Further, the pKi on hmGluR5 [2] is 7.57.
In the same order, the values of `Cc1cncc(C(=O)NC23CCCC(NC(=O)c4cccc(F)c4)(CC2)C3)n1` (stereo not drawn) [Example 6, 6-Methyl-pyrazine-2-carboxylic acid [5-(3-fluoro-benzoylamino)-bicyclo[3.2.1]oct-1-yl]-amide] are 92%, 8.05 and 7.11.
On the same counts, the results for `Cc1ncc(C(=O)NC23CCCC(NC(=O)c4cccc(Cl)c4)(CC2)C3)s1` (stereo not drawn) [Example 15, N-(5-(3-chlorobenzamido)bicyclo[3.2.1]octan-1-yl)-2-methylthiazole-5-carboxamide] are 88%, 7.59 and 6.47.
In the same order, the values of `Cc1cccc(C(=O)NC23CCCC(NC(=O)c4ccncc4)(CC2)C3)c1` (stereo not drawn) [Example 36, N-(5-(3-methylbenzamido)bicyclo[3.2.1]octan-1-yl)isonicotinamide] are 87%, 7.46 and 6.55.
In the case of `Cc1cccc(C(=O)N[C@@]23CCC[C@@](NC(=O)c4ccccn4)(CC2)C3)n1` [Example 126, 6-Methyl-pyridine-2-carboxylic acid {(1S,5R)-5-[(pyridine-2-carbonyl)-amino]-bicyclo[3.2.1]oct-1-yl}-amide], at hmGluR5 [1], the Emax was determined as 86% and the pIC50 is 9.49. This molecule had a pKi at hmGluR5 [2] of 7.41.
In the same order, the values of `Cc1cncc(C(=O)N[C@]23CCC[C@](NC(=O)c4cccc(F)c4)(CC2)C3)n1` [Example 160, 6-Methyl-pyrazine-2-carboxylic acid [(1R,5S)-5-(3-fluoro-benzoylamino)-bicyclo[3.2.1]oct-1-yl]-amide] are 89%, 8.41 and 7.46.
`Cc1cncc(C(=O)N[C@@]23CCC[C@@](NC(=O)c4cccc(F)c4)(CC2)C3)n1` [Example 161, 6-Methyl-pyrazine-2-carboxylic acid [(1S,5R)-5-(3-fluoro-benzoylamino)-bicyclo[3.2.1]oct-1-yl]-amide]: at hmGluR5 [1], the Emax was 90% and the pIC50 is 6.87. The pKi on hmGluR5 [2] was 5.92.
`Cc1cccc(NC(=O)C23CCCC(NC(=O)c4nc(C)cs4)(CC2)C3)n1` (stereo not drawn) [Example 171, 4-methyl-N-(5-(6-methylpyridin-2-ylcarbamoyl)bicyclo[3.2.1]octan-1-yl)thiazole-2-carboxamide]: on hmGluR5 [1], the Emax was determined as 94% and the pIC50 was 8.33. The same molecule had a pKi on hmGluR5 [2] of 7.19.
Regarding `Cc1cccc(NC(=O)C23CCCC(NC(=O)c4cccc(Cl)c4)(CC2)C3)n1` (stereo not drawn) [Example 176, 5-(3-chlorobenzamido)-N-(6-methylpyridin-2-yl)bicyclo[3.2.1]octane-1-carboxamide], at hmGluR5 [1], the Emax was found to be 91% and the pIC50 was 7.48. This molecule also showed a pKi at hmGluR5 [2] of 6.30.
In the same order, the values of `Cc1cccc(C(=O)NC23CCCC(C(=O)Nc4ccnc(C)n4)(CC2)C3)n1` (stereo not drawn) [Example 178, 6-methyl-N-(5-(2-methylpyrimidin-4-ylcarbamoyl)bicyclo[3.2.1]octan-1-yl)picolinamide] are 90%, 7.42 and 6.43.
